According to the supplement of paper PMC10307832:

Experiments:
Assay in all cases: relative viability (nuclei count vs DMSO), 5 days (fraction); higher = more cells survive
Bortezomib + Decitabine = compound: CC(C)C[C@H](NC(=O)[C@H](Cc1ccccc1)NC(=O)c1cnccn1)B(O)O [Bortezomib] + Nc1ncn([C@H]2C[C@H](O)[C@@H](CO)O2)c(=O)n1 [Decitabine] (partner 2 µM)
How it was run: (§1)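 Medians of duplicate plates are given as relative viability. That measure is the nuclei count in treated wells divided by the count in vehicle wells. Counts were taken on 4× images of lung cancer cell lines in 1536-well plates, 5 days after pin-tool dosing the day after seeding with one drug alone or a fixed anchor-drug dose plus five library-drug doses (not always all listed) in √10 steps.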

[1] = compound: CC1=CC(=NN1)NC2=CC(=NC(=N2)/C=C/C3=CC=CC=C3)N4CCN(CC4)C + CC(=O)Nc1cccc(-n2c(=O)n(C3CC3)c(=O)c3c(Nc4ccc(I)cc4F)n(C)c(=O)c(C)c32)c1 [Trametinib] (partner 0.02 µM)
How it was run: as §1

[2] = compound: CC1=CC(=NN1)NC2=CC(=NC(=N2)/C=C/C3=CC=CC=C3)N4CCN(CC4)C + CCNC(=O)c1noc(-c2cc(C(C)C)c(O)cc2O)c1-c1ccc(CN2CCOCC2)cc1 [Luminespib] (partner 0.01 µM)
How it was run: as §1

[3] = compound: CC1=CC(=NN1)NC2=CC(=NC(=N2)/C=C/C3=CC=CC=C3)N4CCN(CC4)C + N=C(N)NC(=N)NCCc1ccccc1 [Phenformin] (partner 250 µM)
How it was run: as §1

Cell Line	relative viability (Bortezomib + Decitabine; first compound 0.0002 µM)	relative viability (Bortezomib + Decitabine; first compound 0.000632 µM)	relative viability (Bortezomib + Decitabine; first compound 0.002 µM)	relative viability (Bortezomib + Decitabine; first compound 0.006325 µM)	relative viability (Bortezomib + Decitabine; first compound 0.02 µM)	relative viability ([1]; first compound 0.08 µM)	relative viability ([1]; first compound 0.253 µM)	relative viability ([1]; first compound 0.8 µM)	relative viability ([1]; first compound 2.53 µM)	relative viability ([1]; first compound 8 µM)	relative viability ([2]; first compound 0.08 µM)	relative viability ([2]; first compound 0.8 µM)	relative viability ([2]; first compound 2.53 µM)	relative viability ([2]; first compound 8 µM)	relative viability ([3]; first compound 0.08 µM)	relative viability ([3]; first compound 0.8 µM)	relative viability ([3]; first compound 2.53 µM)	relative viability ([3]; first compound 8 µM)	relative viability ([2]; first compound 0.253 µM)	relative viability ([3]; first compound 0.253 µM)
NCI-H727	0.993	1.09	0.875	0.95	0.834	0.355	0.347	0.429	0.347	0.285	0.467	0.264	0.252	0.208	0.398	0.41	0.295	0.17	–	–
NCI-H1944	0.414	0.429	0.461	0.402	0.248	0.433	0.429	0.37	0.318	0.239	0.63	0.815	0.553	0.164	0.195	0.186	0.166	0.119	1.06	0.225
NCI-H1437	0.585	0.585	0.595	0.214	0.223	0.532	0.621	0.577	0.272	0.223	1.11	1.13	0.996	0.53	0.3	0.307	0.16	0.107	1.13	0.331
NCI-H441	0.235	0.274	0.207	0.119	0.109	0.434	0.426	0.42	0.141	0.0993	0.471	0.409	0.31	0.142	0.909	0.797	0.192	0.156	0.466	0.955
EMC-BAC-2	1.07	0.987	0.828	0.559	0.196	0.899	0.698	0.938	0.691	0.283	1.2	1.15	0.733	0.271	0.511	0.432	0.228	0.0995	1.21	0.559
NCI-H647	0.483	0.404	0.38	0.0562	0.0417	0.504	0.282	0.377	0.109	0.0926	0.308	0.104	0.172	0.0506	0.481	0.47	0.0675	0.0451	0.267	0.634
CAL-12T	–	–	–	–	–	0.362	0.292	0.259	0.102	0.104	0.429	0.356	0.123	0.074	0.608	0.442	0.17	0.109	0.512	0.489
NCI-H1792	0.473	0.581	0.664	0.286	0.0625	0.427	0.402	0.396	0.195	0.0298	0.407	0.412	0.319	0.122	0.273	0.166	0.0557	0.0429	0.375	0.267
H3255	0.587	0.583	0.316	0.192	0.204	0.636	0.45	0.665	0.608	0.271	1.03	0.892	0.771	0.559	0.369	0.684	0.341	0.27	0.991	0.362
HCC-78	0.703	0.744	0.644	0.615	0.291	0.763	0.605	0.877	0.647	0.324	–	–	–	–	0.647	0.722	0.381	0.293	–	0.704
NCI-H2405	0.716	0.692	0.545	0.212	0.181	0.63	0.397	0.685	0.519	0.147	0.845	0.655	0.526	0.186	0.377	0.422	0.244	0.1	0.827	0.307
A549	0.294	0.205	0.339	0.201	0.248	–	–	–	–	–	–	–	–	–	0.178	0.195	0.0435	0.025	–	0.181
NCI-H1563	–	–	–	–	–	–	–	–	–	–	0.498	0.537	0.553	0.434	0.726	0.664	0.592	0.43	0.554	0.659
HCC-366	0.305	0.327	0.39	0.201	0.0383	0.334	0.372	0.253	0.0375	0.0236	–	–	–	–	0.63	0.62	0.189	0.0317	–	0.7
NCI-H2228	–	–	–	–	–	0.518	0.22	0.637	0.106	0.0612	0.178	0.139	0.128	0.054	0.286	0.238	0.066	0.0616	0.143	0.284
NCI-H1648	0.516	0.444	0.366	0.453	0.292	0.47	0.412	0.497	0.435	0.316	–	–	–	–	–	–	–	–	–	–
NCI-H1623	–	–	–	–	–	–	–	–	–	–	0.579	0.48	0.494	0.305	0.6	0.583	0.563	0.343	0.493	0.615
ABC-1	1.09	1	0.389	0.284	0.287	–	–	–	–	–	0.497	0.961	0.701	0.19	0.199	0.26	0.234	0.187	0.51	0.192
